Measured values published in PubChem BioAssay (NCI).
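A five-concentration, 48-hour dose response in 96-well plates underlies each endpoint, interpolated linearly between surrounding concentrations. GI50 marks 50% less growth. The concentration for full growth arrest is given as TGI.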

Assays:
Test in all cases: NCI-60 cell line screen, 48 h
[1] = tested on: NCI-H23 lung
[2] = tested on: OVCAR-5 ovarian
[3] = tested on: A549 NSCLC
[4] = tested on: IGROV1 ovarian
[5] = tested on: K-562 leukemia
[6] = tested on: HCT-15 colon
[7] = tested on: RPMI-8226 leukemia
[8] = tested on: OVCAR-8 ovarian
[9] = tested on: MALME-3M melanoma
[10] = tested on: EKVX NSCLC

In the case of `Cc1ccc(CCCC(=O)O)cc1C`, the TGI [1] was > 100 µM, the TGI [2] was > 100 µM and the TGI [3] was > 100 µM. For the same molecule, the TGI [4] was > 100 µM, the TGI [5] was > 100 µM and the TGI [6] was > 100 µM. For the same molecule, the TGI [7] was > 100 µM, the TGI [8] was > 100 µM and the TGI [9] was > 100 µM. The TGI [10] was > 100 µM.

For `CSc1nc(NC2OC(CO)C(O)C(O)C2O)c(N)c(=O)n1C` (configuration not stated), the TGI [1] was > 100 µM, the TGI [2] was > 100 µM and the TGI [3] was > 100 µM. The TGI [4] was > 100 µM, the TGI [5] was > 100 µM and the TGI [6] was > 100 µM. The TGI [7] was > 100 µM, the TGI [8] was > 100 µM and the TGI [9] was > 100 µM. The TGI [10] was > 100 µM.

In the case of `N=C(N)c1ccc(-c2ccc(-c3ccccc3)o2)cc1`, the GI50 [1] was 3.37 µM, the TGI [1] was 14.8 µM and the GI50 [2] was 2.11 µM. For the same molecule, the TGI [2] was 6.95 µM, the GI50 [3] was 2.51 µM and the TGI [3] was 6.24 µM. The GI50 [4] was 2 µM, the TGI [4] was 4.5 µM and the GI50 [5] was 2.22 µM. It also gave a TGI [5] of 4.99 µM, a GI50 [6] of 1.64 µM and a TGI [6] of 3.24 µM. It also gave a GI50 [7] of 2.75 µM, a TGI [7] of 7.29 µM and a GI50 [9] of 1.55 µM. For the same molecule, the TGI [9] was 3.12 µM, the GI50 [10] was 2.61 µM and the TGI [10] was 11.8 µM.

In the case of `Nc1cccc2cc(S(=O)(=O)Nc3ccc(C(=O)O)cc3)ccc12`, the TGI [1] was > 100 µM, the TGI [2] was > 100 µM and the TGI [3] was > 100 µM. For the same molecule, the TGI [4] was > 100 µM, the TGI [5] was > 100 µM and the TGI [6] was > 100 µM. The TGI [7] was > 100 µM, the TGI [8] was > 100 µM and the TGI [9] was > 100 µM. For the same molecule, the TGI [10] was > 100 µM.

With `NC(=O)OCc1c(O)c2c(c(O)c1COC(N)=O)C(=O)C=CC2=O` the TGI [1] was > 100 µM, the TGI [2] was > 100 µM and the TGI [3] was > 100 µM. The TGI [4] was > 100 µM, the TGI [5] was > 100 µM and the TGI [6] was > 100 µM. The TGI [7] was > 100 µM, the TGI [8] was > 100 µM and the TGI [9] was > 100 µM. For the same molecule, the TGI [10] was > 100 µM.

In the case of `COc1ccc(C2C(Cl)C(=O)N2NC(=O)c2ccc(NC(C)=O)cc2)cc1OC` (configuration not stated), the TGI [1] was > 100 µM, the TGI [2] was > 100 µM and the TGI [3] was > 100 µM. The TGI [4] was > 100 µM, the TGI [5] was > 100 µM and the TGI [7] was > 100 µM. For the same molecule, the TGI [8] was > 100 µM and the TGI [9] was > 100 µM.

With `O=C(Nc1ccc(-n2cc(-c3ccncc3)c(-c3ccc(O)c(Cl)c3)n2)cc1)c1ccc(Cl)c(Cl)c1` the GI50 [1] was 2.18 µM, the TGI [1] was > 32.5 µM and the GI50 [2] was > 32.5 µM. For the same molecule, the TGI [2] was > 32.5 µM, the GI50 [3] was 2.87 µM and the TGI [3] was > 32.5 µM. For the same molecule, the GI50 [4] was > 32.5 µM, the TGI [4] was > 32.5 µM and the GI50 [5] was 0.966 µM. The TGI [5] was > 32.5 µM, the GI50 [6] was 0.708 µM and the TGI [6] was > 32.5 µM. For the same molecule, the GI50 [7] was 0.537 µM, the TGI [7] was 1.44 µM and the GI50 [8] was 1.74 µM. The TGI [8] was > 32.5 µM, the GI50 [9] was 2.47 µM and the TGI [9] was > 32.5 µM. For the same molecule, the GI50 [10] was 30.5 µM and the TGI [10] was > 32.5 µM.

`CC(C)c1cccc(C(C)C)c1NC(=S)Nc1ccccc1` was tested, and the TGI [1] was > 100 µM, the TGI [2] was > 100 µM and the TGI [3] was > 100 µM. For the same molecule, the TGI [4] was > 100 µM, the TGI [5] was > 100 µM and the TGI [6] was > 100 µM. For the same molecule, the TGI [7] was > 100 µM, the TGI [8] was > 100 µM and the TGI [9] was > 100 µM. For the same molecule, the TGI [10] was > 100 µM.

For `CCN(CC)CCSc1nc2c([N+](=O)[O-])cccc2[nH]1`, the TGI [1] was > 100 µM, the TGI [3] was > 100 µM and the TGI [4] was > 100 µM. For the same molecule, the TGI [5] was > 100 µM, the TGI [6] was > 100 µM and the TGI [7] was > 100 µM. For the same molecule, the TGI [8] was > 100 µM and the TGI [10] was > 100 µM.

`CC[n+]1c(/C=C/c2ccc(N(CCCl)CCCl)cc2)ccc2cc(Br)ccc21` gave a GI50 [1] of 172 µM, a GI50 [2] of 202 µM and a GI50 [3] of 1370 µM. The TGI [4] was 18.4 µM, the GI50 [5] was 125 µM and the GI50 [6] was 2520 µM. It also gave a GI50 [7] of 162 µM, a TGI [8] of 10.4 µM and a GI50 [9] of 84 µM. It also gave a GI50 [10] of 1060 µM.

`O=C1c2ccccc2-c2ccc(N(Cc3ccc(Br)cc3)Cc3ccc(Br)cc3)cc21` was tested, and the TGI [1] was > 100 µM, the TGI [2] was > 100 µM and the TGI [3] was > 100 µM. The TGI [4] was > 100 µM, the TGI [5] was > 100 µM and the TGI [6] was > 100 µM. The TGI [7] was > 100 µM, the TGI [8] was > 100 µM and the TGI [9] was > 100 µM. The TGI [10] was > 100 µM.

`CC(C)=CCC/C(C)=C/CC/C(C)=C/C(O)c1ccccc1` (configuration not stated) gave a TGI [1] of 55.8 µM, a TGI [2] of 32.5 µM and a TGI [4] of 37.2 µM. The TGI [5] was > 100 µM, the TGI [6] was 32.8 µM and the TGI [7] was 49.5 µM. It also gave a TGI [8] of 40.6 µM, a TGI [9] of 34.5 µM and a TGI [10] of 34.3 µM.

In the case of `CNC1=C(C)C(=O)C2=C(C1=O)C(COC(N)=O)C1(OC)C3NC3CN21` (configuration not stated), the TGI [2] was 50.2 µM, the TGI [3] was > 100 µM and the TGI [4] was 91.2 µM. For the same molecule, the TGI [5] was > 100 µM, the TGI [6] was 3.52 µM and the TGI [7] was 66.7 µM. The TGI [8] was 11 µM, the TGI [9] was 3.61 µM and the TGI [10] was > 100 µM.
